For orientation: CC50 means the concentration that lowers cell viability or growth by half. One may read the EC50 as the midpoint of the concentration-response curve. By AC50 is commonly meant the midpoint of the concentration-response curve, whichever way the signal moves.

This note sets out measurements from ChEMBL document CHEMBL1201862, “PubChem BioAssay data set” (2004).

Assay [1] deals with Glyceraldehyde-3-phosphate dehydrogenase (Homo sapiens, UniProt P04406).
The target of another assay is T1, Leucine aminopeptidase (Plasmodium falciparum 3D7, UniProt Q8IL11).
T1 sequence (Q8IL11 whole entry): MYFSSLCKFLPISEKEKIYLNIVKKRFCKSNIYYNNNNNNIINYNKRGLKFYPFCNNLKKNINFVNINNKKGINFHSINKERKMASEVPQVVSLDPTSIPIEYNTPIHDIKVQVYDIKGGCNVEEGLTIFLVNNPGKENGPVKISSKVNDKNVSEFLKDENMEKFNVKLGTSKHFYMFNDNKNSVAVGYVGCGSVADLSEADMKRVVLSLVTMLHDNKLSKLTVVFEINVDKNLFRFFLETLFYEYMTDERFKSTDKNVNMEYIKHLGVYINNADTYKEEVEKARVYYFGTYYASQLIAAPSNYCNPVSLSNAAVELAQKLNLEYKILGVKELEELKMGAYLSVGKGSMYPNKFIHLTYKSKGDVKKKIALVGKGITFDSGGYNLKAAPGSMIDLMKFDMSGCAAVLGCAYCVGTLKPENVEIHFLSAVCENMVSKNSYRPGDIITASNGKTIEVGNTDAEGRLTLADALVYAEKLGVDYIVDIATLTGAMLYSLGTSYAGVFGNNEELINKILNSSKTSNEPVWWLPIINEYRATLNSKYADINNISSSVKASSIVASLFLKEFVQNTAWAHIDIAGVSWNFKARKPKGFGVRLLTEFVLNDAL
The assay is described as follows: P. falciparum M17LAP inhibitors, primary screen, biochemical, fluorogenic H-Leu-NHMec substrate, 1536-well (AID 1619). In kind it is functional.

The next assay has as its system Vero. The assay is described as follows: mammalian cell viability reduction – secondary assay, cytotoxicity control for West Nile virus antiviral project, dose response (AID 1650). The note with it: Chlorocebus sabaeus. In kind it is functional.
Assay [2] is described as follows: A cytotoxicity screen of small molecule inhibitors of the PhoP region in Salmonella typhi identified in the primary screen. [Related pubchem assays: 1850, 1864, 1985 ]. In kind it is functional.
Assay [3] in a line: viability of uninfected HEp-2 cells – cell-based, HTS, cytotoxicity control for RSV inhibitor project, dose response (AID 2410). In kind it is functional. Particulars: human respiratory syncytial virus.
A short description of assay [4]: general mammalian cell viability loss – inhibitor set, cherry-pick, set 2, cytotoxicity control for miR-122 modulator project, dose response (AID 720697). In kind it is functional, cell-based.
In assay [5] the target is T2, DNA repair protein RAD52 homolog (Homo sapiens, UniProt P43351).
T2 sequence (P43351 whole entry): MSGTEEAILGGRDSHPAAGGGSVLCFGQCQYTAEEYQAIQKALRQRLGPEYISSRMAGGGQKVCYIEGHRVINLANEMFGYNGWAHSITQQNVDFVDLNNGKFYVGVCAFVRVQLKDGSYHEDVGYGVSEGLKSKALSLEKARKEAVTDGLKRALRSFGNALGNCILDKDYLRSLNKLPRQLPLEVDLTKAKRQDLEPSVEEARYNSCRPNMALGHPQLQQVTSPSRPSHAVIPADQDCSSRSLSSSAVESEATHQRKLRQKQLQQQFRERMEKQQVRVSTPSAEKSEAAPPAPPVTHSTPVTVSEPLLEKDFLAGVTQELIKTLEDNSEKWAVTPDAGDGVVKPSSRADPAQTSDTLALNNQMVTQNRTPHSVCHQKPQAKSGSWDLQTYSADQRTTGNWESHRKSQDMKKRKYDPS
It is filed as functional, biochemical.

A short description of assay [6]: Luminescence Cell-Based Dose Response HTS to Identify Inhibitors of 5'UTR Stem-Loop Driven Prion Protein mRNA Translation in H4 Neuroglioblastoma Cells. [Related pubchem assays: 1827 (Project Summary), 1813 (Primary HTS)]. It is filed as functional.
Assay [7] addresses T3, Ubiquitin-conjugating enzyme E2 N (Homo sapiens, UniProt P61088).
T3 sequence (P61088 whole entry): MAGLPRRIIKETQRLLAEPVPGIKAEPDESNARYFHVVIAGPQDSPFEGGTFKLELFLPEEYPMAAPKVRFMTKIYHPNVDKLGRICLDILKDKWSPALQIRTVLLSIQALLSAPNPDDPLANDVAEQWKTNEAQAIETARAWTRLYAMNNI
It is filed as functional.

Assay [8] is described as follows: luciferase reporter signal suppression in cells – H4 neuroglioma cells, luminescence, dose response (AID 1990). It is filed as functional, cell-based.
Assay [9] can be described thus: alpha-synuclein stem-loop luciferase translation blockers – H4 neuroglioma cells, luminescence, confirmation (AID 1988). In kind it is functional, cell-based.
Assay [10] addresses T4, Histone-lysine N-methyltransferase NSD2 (Homo sapiens, UniProt O96028).
T4 sequence (O96028 whole entry): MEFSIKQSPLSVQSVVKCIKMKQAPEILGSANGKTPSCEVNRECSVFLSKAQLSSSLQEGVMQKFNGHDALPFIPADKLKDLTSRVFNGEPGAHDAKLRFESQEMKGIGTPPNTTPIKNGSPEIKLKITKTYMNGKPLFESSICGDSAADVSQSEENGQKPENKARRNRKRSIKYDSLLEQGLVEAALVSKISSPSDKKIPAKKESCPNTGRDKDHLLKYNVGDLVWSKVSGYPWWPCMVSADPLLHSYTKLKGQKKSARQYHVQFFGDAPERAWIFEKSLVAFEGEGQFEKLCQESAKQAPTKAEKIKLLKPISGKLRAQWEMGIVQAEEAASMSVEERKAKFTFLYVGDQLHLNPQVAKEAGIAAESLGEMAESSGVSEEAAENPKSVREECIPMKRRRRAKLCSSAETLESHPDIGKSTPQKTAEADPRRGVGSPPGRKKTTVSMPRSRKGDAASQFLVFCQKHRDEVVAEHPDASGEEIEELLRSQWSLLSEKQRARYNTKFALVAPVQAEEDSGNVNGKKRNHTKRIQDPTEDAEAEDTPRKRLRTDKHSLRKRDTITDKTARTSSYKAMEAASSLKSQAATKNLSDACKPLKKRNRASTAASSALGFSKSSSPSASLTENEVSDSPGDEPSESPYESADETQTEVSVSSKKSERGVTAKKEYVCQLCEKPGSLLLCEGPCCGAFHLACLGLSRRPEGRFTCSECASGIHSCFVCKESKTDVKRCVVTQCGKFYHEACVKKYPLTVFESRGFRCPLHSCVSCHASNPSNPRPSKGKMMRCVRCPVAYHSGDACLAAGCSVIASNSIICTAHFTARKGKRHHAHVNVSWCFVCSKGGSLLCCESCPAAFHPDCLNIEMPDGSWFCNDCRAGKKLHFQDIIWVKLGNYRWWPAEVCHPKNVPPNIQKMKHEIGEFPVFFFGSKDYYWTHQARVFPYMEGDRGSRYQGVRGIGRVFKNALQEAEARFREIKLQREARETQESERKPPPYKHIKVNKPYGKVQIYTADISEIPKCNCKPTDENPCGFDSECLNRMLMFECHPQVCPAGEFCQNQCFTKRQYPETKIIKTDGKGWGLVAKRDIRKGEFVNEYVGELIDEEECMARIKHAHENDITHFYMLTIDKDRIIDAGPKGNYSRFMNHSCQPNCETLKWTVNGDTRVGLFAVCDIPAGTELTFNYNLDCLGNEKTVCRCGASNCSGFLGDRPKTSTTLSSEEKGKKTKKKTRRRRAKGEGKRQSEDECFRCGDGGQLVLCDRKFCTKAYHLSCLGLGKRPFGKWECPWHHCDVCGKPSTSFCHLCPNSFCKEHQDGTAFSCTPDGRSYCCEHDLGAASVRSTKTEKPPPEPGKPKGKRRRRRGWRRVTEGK
In kind it is biochemical.

Another assay has as its target Estrogen receptor beta (Homo sapiens, UniProt Q92731). The assay is described as follows: blockers of SRC-3 recruitment to ERβ – biochemical, ELISA, streptavidin-HRP readout, orthogonal assay, confirmation (AID 1060).
In assay [11] the target is T5, Polyadenylate-binding protein 1 (Homo sapiens, UniProt P11940). The assay is described as follows: MLLE binding blockers, Cy5 peptide tracer – biochemical, fluorescence polarization, Cy5-PAM2 peptide, secondary, miRNA deadenylation inhibitor project, dose response (AID 602260). It is filed as functional. The note with it: read-out: IC50_Mean. A general note: Polarisation of emitted light reports the rotation of a fluorescent probe.

Assay [12] concerns the target T5, Polyadenylate-binding protein 1. The assay is described as follows: MLLE domain peptide-binding blockers, IC50 – biochemical, fluorescence polarization, FITC-PAM2 peptide, dose response (AID 602259). It is filed as functional. The note with it: read-out: IC50_Mean.

Calls of active or inactive are those of the source.

T5 sequence (P11940 whole entry): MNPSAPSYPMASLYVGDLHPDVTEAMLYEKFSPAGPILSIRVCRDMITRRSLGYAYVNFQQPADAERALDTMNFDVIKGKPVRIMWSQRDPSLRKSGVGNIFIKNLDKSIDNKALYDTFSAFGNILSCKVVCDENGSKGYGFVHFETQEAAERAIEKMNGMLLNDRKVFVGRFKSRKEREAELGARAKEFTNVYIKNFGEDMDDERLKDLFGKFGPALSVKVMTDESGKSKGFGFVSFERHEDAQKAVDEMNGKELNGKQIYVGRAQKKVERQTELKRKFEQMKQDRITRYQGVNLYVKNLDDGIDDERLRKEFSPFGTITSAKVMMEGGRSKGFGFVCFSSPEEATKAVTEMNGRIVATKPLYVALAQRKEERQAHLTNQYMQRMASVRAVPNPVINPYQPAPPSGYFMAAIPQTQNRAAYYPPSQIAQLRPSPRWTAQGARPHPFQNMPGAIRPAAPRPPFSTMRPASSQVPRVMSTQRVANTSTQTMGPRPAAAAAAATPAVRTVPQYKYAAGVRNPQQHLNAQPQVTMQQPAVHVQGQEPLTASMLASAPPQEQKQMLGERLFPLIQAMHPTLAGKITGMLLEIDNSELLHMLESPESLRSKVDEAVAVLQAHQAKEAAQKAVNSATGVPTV
Sequence of Estrogen receptor beta (Q92731 whole entry): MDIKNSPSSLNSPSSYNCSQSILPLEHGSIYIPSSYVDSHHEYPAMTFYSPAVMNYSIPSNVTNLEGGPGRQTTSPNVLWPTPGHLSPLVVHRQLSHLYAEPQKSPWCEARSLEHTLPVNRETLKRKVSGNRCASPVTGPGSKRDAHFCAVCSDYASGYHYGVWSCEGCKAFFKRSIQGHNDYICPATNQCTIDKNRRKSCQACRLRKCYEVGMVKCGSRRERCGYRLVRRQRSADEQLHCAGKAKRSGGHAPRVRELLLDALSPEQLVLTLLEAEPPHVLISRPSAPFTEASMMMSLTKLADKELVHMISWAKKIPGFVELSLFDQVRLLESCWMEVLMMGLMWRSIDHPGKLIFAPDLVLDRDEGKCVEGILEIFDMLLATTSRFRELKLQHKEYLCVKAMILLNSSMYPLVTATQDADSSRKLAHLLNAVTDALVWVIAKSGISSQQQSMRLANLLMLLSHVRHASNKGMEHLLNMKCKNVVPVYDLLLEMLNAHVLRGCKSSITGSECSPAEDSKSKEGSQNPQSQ
Sequence of Glyceraldehyde-3-phosphate dehydrogenase (P04406 whole entry): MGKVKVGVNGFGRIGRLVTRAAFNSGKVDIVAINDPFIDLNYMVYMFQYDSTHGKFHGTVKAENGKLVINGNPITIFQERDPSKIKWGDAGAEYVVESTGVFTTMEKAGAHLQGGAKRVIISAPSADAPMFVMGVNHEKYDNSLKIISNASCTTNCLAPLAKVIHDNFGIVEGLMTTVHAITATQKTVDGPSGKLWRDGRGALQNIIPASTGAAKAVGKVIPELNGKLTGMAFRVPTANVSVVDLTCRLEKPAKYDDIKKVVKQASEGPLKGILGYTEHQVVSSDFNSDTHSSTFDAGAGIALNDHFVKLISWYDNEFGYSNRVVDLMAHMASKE

Regarding `O=C1C(Cl)=C(N2CCN(c3ccccc3)CC2)C(=O)N1c1ccc(C(F)(F)F)cc1`, the IC50 in assay [1] was > 50 µM (inconclusive). Consider `O=C(O)COc1ccc(Br)cc1/C=C1/SC(=O)N(CC(=O)N2CCCC2)C1=O`, for which the IC50 on Leucine aminopeptidase was 34.8 µM (active). For the compound `O=C(Nc1ccc(Cl)cc1-c1nc2ccccc2s1)c1ccco1`, the CC50 in the assay with Vero is 13.3 µM (active).

As for `Cc1cc(C)nc(SCC(=O)Nc2sc3c(c2C#N)CCC(C)C3)n1` (stereo unspecified), the EC50 in assay [2] was > 50 µM (active). As for `Cc1ccc(C(=O)Nc2nc(=O)n(C(=O)CC(C)C)s2)cc1`, the IC50 on Leucine aminopeptidase is 24.5 µM (active). Regarding `Cc1ccc(C)c(Nc2cc(C)nc3ccccc23)c1`, the EC50 in assay [2] was > 50 µM (active). Also, the CC50 in assay [3] was 16.9 µM (active). Take `COCC(=O)NC[C@H]1[C@@H](c2ccc(C3=CCCC3)cc2)[C@@H](CO)N1C(=O)C1CC1`: in [4], the AC50 is 9.14 µM (active). For the compound `COc1ccc(-n2cnc3c(sc4nc(N5CCOCC5)c5c(c43)CCCC5)c2=O)cc1`, the EC50 in assay [2] was > 50 µM (active). Regarding `CN(C)CCn1cnc2c(c1=N)C(c1ccccc1)c1ccc3ccccc3c1O2` (stereo unspecified), the AC50 in assay [5] is 23.6 µM (active). In addition, the EC50 was 0.18 µM (active) in assay [6], > 120 µM (not active) in [8] and > 120 µM (not active) in assay [9]. Also, the IC50 in assay [7] was > 20 µM (inactive). Consider `CN1CCN(c2nc3ccccc3nc2C(C#N)S(=O)(=O)c2ccccc2)CC1` (stereo unspecified), for which the EC50 in assay [6] is > 120 µM (not active); in assay [8], > 120 µM (not active); in [9], 18.8 µM (active). Also, in the assay with Vero, the CC50 is 4.16 µM (active). On to `CCCN(CCC)CCCN=C(S)Nc1ccc2nc(N3CCN(CC)CC3)cc(C)c2c1`, for which the AC50 is 5.26 µM (active) in assay [5] and > 20 µM (inactive) in [10].

Regarding `COc1ccc(Br)cc1S(=O)(=O)Nc1cnc2ccccc2c1`, in assay [1], the IC50 was > 100 µM (not active). Turning to `CCn1cc(-c2cc(C(F)(F)F)n3nc(C(=O)O)cc3n2)c(C)n1`, the IC50 against Estrogen receptor beta is on record as 3.41 µM (not active). Regarding `O=C(O)CC/C(=N/NC(=O)c1cccs1)c1ccccc1`, the IC50 on Leucine aminopeptidase is 36 µM (active). Regarding `Cc1nnc(N2C(=O)c3oc4ccccc4c(=O)c3C2c2ccco2)s1` (stereo unspecified), the IC50 in assay [11] is > 66 µM (inactive); in [12] it was > 66 µM (inactive); against Estrogen receptor beta, 0.0501 µM (not active).
